Like-named read-outs stand apart in the source and are kept apart here.
Columns and labels:
Focus = assay: Glutamine transport assay (initial-rate uptake, kinetic analysis); type: cell-based, human
Protocol: (§1) Glutamine Transport Assays. Measurement of initial-rate glutamine uptake was carried out via the cluster-tray method originally described by Gazzola (21) as reported previously (6, 9). Briefly, after trypsinization hepatoma cells were plated at a density of 1×10^5 cells/well in 24-well culture plates (Costar Corp., Cambridge, Mass.) and allowed to grow to >80% confluence, typically one to two days later. For initial-rate measurements, the radiotracer utilized was L-[G-^3H] glutamine (Amersham Corp., Arlington Heights, Ill.) at 4 μCi/ml, in the presence of unlabeled L-glutamine at 50 μM. For kinetic studies, the amount of unlabeled glutamine in the transport buffer varied from 10 μM to 10 mM. All transport measurements were carried out at 37° C. and were terminated after 30 s by three rapid washes with an ice-cold phosphate-buffered saline solution. Intracellular radiolabeled glutamine was extracted with 0.2 ml/well of 0.2% sodium dodecyl sulfate (SDS) and 0.2 N NaOH; after 1 h, 0.1 ml of the lysate was neutralized with 10 μl of 2 N HCl and subjected to scintillation spectrophotometry in a Packard TopCount™ (Packard Instruments, Meriden, Conn.). The remaining lysate was utilized for the determination of cellular protein by the bicinchoninic acid (BCA) method (Pierce Chemical Co., Rockford, Ill.). Rates of glutamine transport were calculated from the cpm per sample, the specific activity of the uptake mix (in cpm/nmol) and normalized to cellular protein content in a Microsoft Excel® spreadsheet program. Transport values obtained in the absence of extracellular Na^+ (diffusion and Na^+-independent uptake) were subtracted from those in the presence of Na^+ (total uptake) to yield Na^+-dependent rates which are reported in units of nmol•mg^−1 protein•30 s^−1. All transport values depicted are the average±standard deviation of four separate determinations. Kinetic analysis of Eadie-Hofstee linearized transport data (v vs. v/[L-GLN]) was performed by regression analysis (Cricket Graph®, Computer Associates, Islandia, N.Y.). Nonlinear regression analysis was performed with DataDesk (Data Description, Inc. Ithaca, N.Y.) and Excel for two component Michaelis-Menten kinetics: v=((Vmax1×[S])/(Km1+[S])+(Vmax2×[S])/(Km2+[S])).
(§2) Therefore, two component nonlinear regression analyses were performed on the Na^+-dependent transport kinetic data, where they were adequately resolved into high and low affinity components in all cell lines under study. The results are graphically depicted in FIG. 1 as insets. […] Possibilities for each cell line will be offered discussion based on the molecular analyses described below.

Hep3B = assay: as above; type: cell-based, human
Protocol: as §1, §2

Huh-7 = assay: as above; type: cell-based, human
Protocol: as §1, §2

PLC/PRF/5 = assay: as above; type: cell-based, human
Protocol: as §1, §2

THLE-5B = assay: Glutamine transport assay (inhibition and kinetic analysis); type: cell-based, human
Protocol: FIG. 1. Amino acid inhibition analysis of glutamine transport in the Hep3B, PLC/PRF/5 and Focus human hepatoma cell lines and the THLE-5B SV40-immortalized human liver epithelial cell line. The Na^+-dependent transport of 50 μM L-glutamine was measured as described in the Methods section in the absence or presence of the indicated unlabeled amino acids at 5 mM. Testing of cysteine (CYSH) required the presence of 5 mM dithiothreitol (DTT) as a reducing agent, so DTT was tested alone as well. Arrows indicate the relative transport rates for 50 μM L-glutamine in primary human adult (solid arrow) and fetal (open arrow) hepatocytes. The results represent the average±SD of four separate determinations (*p<0.010 versus control). The Eadie-Hofstee plots of the kinetic analyses are shown as an inset in each figure, with the dashed lines representing the resolved high and low affinity components of the composite data (solid line). The derived values of the kinetic constants for each component are given in the Results section.
as §1
It should be noted that extensive depletion of intracellular amino acid pools were not performed prior to transport measurements in these studies because we sought to assess glutamine uptake under more physiological conditions. […]

System A & N isoforms = settings: read-out: deduced Km values for glutamine; cited from earlier work
[1] = read-out: Km, high affinity component
[2] = read-out: Km, low affinity system
[3] = read-out: Km, high affinity system
[4] = read-out: Km, low affinity component

Km (Focus; [1]): 122 µM | Km (Focus; [2]): 1200 µM | Km (Hep3B; Na+-dependent glutamine transport, read-out: Km, low affinity system): 1000 µM | Km (Hep3B; [3]): 90 µM | Km (Huh-7; [1]): 50 µM | Km (Huh-7; [4]): 861 µM | Km (PLC/PRF/5; [3]): 23 µM | Km (PLC/PRF/5; [2]): 775 µM | Km (THLE-5B; [1]): 135 µM | Km (THLE-5B; [4]): 1300 µM
SMILES: NC(=O)CC[C@H](N)C(=O)O [glutamine, L-glutamine]
Vmax, high affinity component (Focus): 2.2 nmol•mg^−1 protein•30 s^−1 | Vmax, low affinity system (Focus): 2.7 nmol•mg^−1 protein•30 s^−1 | Vmax, high affinity system (Hep3B): 3.0 nmol•mg^−1 protein•30 s^−1 | Vmax, low affinity system (Hep3B): 4.5 nmol•mg^−1 protein•30 s^−1 | Vmax, high affinity component (Huh-7): 7.3 nmol•mg^−1 protein•30 s^−1 | Vmax, low affinity component (Huh-7): 11.7 nmol•mg^−1 protein•30 s^−1 | Vmax, high affinity system (PLC/PRF/5): 0.82 nmol•mg^−1 protein•30 s^−1 | Vmax, low affinity system (PLC/PRF/5): 3.9 nmol•mg^−1 protein•30 s^−1 | Vmax, high affinity component (THLE-5B): 30.8 nmol•mg^−1 protein•30 s^−1 | Vmax, low affinity component (THLE-5B): 32.6 nmol•mg^−1 protein•30 s^−1 | Km (System A & N isoforms): 1000 to 3000 µM

— patent US20060280725A1, “Compositions and methods of treating and diagnosing hepatoma” (priority 2003, published 2006)
